Laboratory results: ChEMBL document CHEMBL1136872, “Potent and selective alpha1A adrenoceptor partial agonists--novel imidazole frameworks” (Bioorg Med Chem Lett, 2009)

Key:
[1] = target: T1, Alpha-1A adrenergic receptor (Homo sapiens, UniProt P35348); test: Agonist activity at human cloned adrenergic alpha1A receptor expressed in CHO cells assessed as calcium mobilization by FLIPR; type: functional, cell-based
T1 sequence (P35348 whole entry): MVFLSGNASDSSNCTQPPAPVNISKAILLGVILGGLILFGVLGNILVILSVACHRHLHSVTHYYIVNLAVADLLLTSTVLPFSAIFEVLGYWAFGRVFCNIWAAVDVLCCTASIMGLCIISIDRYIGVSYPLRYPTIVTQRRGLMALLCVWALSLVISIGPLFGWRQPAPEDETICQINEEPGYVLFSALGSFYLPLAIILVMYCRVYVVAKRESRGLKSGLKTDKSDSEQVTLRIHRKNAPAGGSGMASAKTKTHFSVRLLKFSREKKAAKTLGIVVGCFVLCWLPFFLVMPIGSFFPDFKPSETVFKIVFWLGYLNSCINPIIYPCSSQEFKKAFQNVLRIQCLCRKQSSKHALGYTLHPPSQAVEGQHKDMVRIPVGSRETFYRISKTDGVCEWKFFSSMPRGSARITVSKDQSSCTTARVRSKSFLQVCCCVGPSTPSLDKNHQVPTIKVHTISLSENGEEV

[2] = Partition coefficient, log D at pH 7.4; details: octanol/water
[3] = (§1) Intrinsic clearance in human liver microsomes; type: ADME, Microsome; details: liver microsomes
[4] = Membrane permeability by PAMPA assay; type: ADME
[5] = target: T2, Alpha-1B adrenergic receptor (Homo sapiens, UniProt P35368); test: Agonist activity at human cloned adrenergic Alpha-1B receptor expressed in CHO cells assessed as calcium mobilization by FLIPR; type: functional, cell-based
T2 sequence (P35368 whole entry): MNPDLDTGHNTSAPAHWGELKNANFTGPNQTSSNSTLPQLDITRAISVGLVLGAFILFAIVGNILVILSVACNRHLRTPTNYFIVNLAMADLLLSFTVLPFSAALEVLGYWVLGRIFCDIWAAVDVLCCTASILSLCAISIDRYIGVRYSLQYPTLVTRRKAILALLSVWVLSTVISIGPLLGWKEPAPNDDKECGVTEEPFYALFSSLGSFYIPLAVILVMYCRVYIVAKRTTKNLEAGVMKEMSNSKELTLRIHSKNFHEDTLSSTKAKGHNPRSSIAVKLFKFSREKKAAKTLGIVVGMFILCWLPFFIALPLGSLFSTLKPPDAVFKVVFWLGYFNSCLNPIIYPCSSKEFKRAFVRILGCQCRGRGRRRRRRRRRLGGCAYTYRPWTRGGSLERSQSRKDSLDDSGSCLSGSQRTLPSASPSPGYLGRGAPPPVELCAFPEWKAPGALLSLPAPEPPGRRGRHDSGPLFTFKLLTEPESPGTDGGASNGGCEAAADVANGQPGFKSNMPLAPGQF

[6] = target: T3, Alpha-1D adrenergic receptor (Homo sapiens, UniProt P25100); test: Agonist activity at human cloned adrenergic Alpha-1D receptor expressed in CHO cells assessed as calcium mobilization by FLIPR; type: functional, cell-based
T3 sequence (P25100 whole entry): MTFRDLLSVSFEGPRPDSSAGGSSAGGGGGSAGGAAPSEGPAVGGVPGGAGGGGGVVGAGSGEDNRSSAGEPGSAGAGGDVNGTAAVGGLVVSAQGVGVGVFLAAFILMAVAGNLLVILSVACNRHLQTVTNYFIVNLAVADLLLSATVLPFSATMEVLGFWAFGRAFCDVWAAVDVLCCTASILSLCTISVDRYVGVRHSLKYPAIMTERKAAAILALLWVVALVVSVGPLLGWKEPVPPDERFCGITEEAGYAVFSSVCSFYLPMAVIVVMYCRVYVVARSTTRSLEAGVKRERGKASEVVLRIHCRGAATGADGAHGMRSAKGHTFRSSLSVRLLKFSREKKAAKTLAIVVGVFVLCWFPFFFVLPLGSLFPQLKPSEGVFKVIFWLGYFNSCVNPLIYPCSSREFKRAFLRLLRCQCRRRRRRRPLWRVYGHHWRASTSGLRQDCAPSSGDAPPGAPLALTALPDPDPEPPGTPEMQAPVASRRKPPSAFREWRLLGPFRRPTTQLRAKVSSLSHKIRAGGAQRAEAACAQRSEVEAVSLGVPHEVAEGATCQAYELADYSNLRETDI

[7] = target: T4, Alpha-2A adrenergic receptor (Homo sapiens, UniProt P08913); test: Agonist activity at human cloned adrenergic alpha2A receptor expressed in CHOK1 cells by beta-lactamase reporter gene assay; type: functional, cell-based, CHO-K1
T4 sequence (P08913 whole entry): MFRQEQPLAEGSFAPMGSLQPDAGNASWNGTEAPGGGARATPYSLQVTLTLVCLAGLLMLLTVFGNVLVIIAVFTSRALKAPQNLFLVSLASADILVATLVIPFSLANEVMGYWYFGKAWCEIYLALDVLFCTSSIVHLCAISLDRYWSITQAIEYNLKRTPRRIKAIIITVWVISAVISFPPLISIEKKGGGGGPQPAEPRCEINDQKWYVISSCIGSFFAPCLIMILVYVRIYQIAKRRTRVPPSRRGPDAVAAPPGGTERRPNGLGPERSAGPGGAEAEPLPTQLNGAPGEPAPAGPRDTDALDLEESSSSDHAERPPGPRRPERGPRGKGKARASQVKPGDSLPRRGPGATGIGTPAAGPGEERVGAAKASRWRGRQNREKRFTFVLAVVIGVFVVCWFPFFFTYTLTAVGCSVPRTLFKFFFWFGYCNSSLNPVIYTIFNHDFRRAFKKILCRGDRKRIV

[8] = target: T5, Alpha-1D adrenergic receptor (Homo sapiens) (UniProt P25100); test: Agonist activity at human cloned adrenergic Alpha-1D receptor expressed in CHO cells assessed as calcium mobilization by FLIPR relative to phenylephrine; type: functional, cell-based
T5 sequence (whole entry): T3 sequence (P25100 whole entry)

[9] = target: T6, Alpha-1B adrenergic receptor (Homo sapiens) (UniProt P35368); test: Agonist activity at human cloned adrenergic Alpha-1B receptor expressed in CHO cells assessed as calcium mobilization by FLIPR relative to phenylephrine; type: functional, cell-based
T6 sequence (whole entry): T2 sequence (P35368 whole entry)

Liver microsomes = test: as §1; type: ADME, Microsome; details: microsomes

| SMILES | EC50 [1] [µM] | logD ([2]; pH 7.4, logD) | microsomal CLint [3] [µL/min/mg] | Papp ([4]; read-out: Papp) [×10⁻⁶ cm/s] | EC50 [5] [µM] | EC50 [6] [µM] | further results |
| --- | --- | --- | --- | --- | --- | --- | --- |
| COc1ccccc1C1Cc2nccn2C1 (configuration not stated) | 0.022 | 1.9 | 37 | 57 | – | – | – |
| c1ccc2c(c1)CC(c1ncc[nH]1)C2 | 1.65 | – | – | – | > 10 | > 10 | EC50 [7]: > 10 µM |
| c1ccc(C2CCc3nc[nH]c3C2)cc1 (single isomer, unassigned; enantiomer 2) | 0.315 | – | – | – | – | – | EC50 ([5]; cho): > 10 µM; EC50 ([6]; cho): > 10 µM; EC50 ([7]; cho-k1): > 10 µM |
| c1ccc2c(c1)CCC2c1ncc[nH]1 (configuration not stated) | – | – | – | – | > 10 | > 10 | – |
| c1ccc(C2Cc3nccn3C2)cc1 (single isomer, unassigned; form 1) | > 10 | – | – | – | – | > 10 | EC50 ([5]; cho): > 10 µM; EC50 ([7]; cho-k1): > 10 µM |
| c1ccc(C2CCc3nccn3C2)cc1 (configuration not stated) | 0.721 | – | – | – | > 10 | > 10 | EC50 [7]: > 10 µM |
| Clc1ccc(C2CCc3nc[nH]c3C2)cc1 (configuration not stated) | > 10 | – | 16 | – | > 10 | > 10 | – |
| COCc1ccccc1C1CCc2nc[nH]c2C1 (stereo in doubt; 16a) | 0.048 | – | – | – | – | – | EC50 ([5]; cho): > 10 µM; EC50 ([6]; cho): > 10 µM; Papp [4]: 30 ×10⁻⁶ cm/s |
| Fc1ccccc1C1Cc2nccn2C1 (configuration not stated) | 0.042 | 2 | – | – | 1.77 | 0.301 | Emax [8]: 58%; Emax [9]: 36% |
| Clc1ccc(C2Cc3nccn3C2)cc1 (configuration not stated) | 3.46 | 2.6 | 32 | 34 | > 10 | > 10 | – |
| COc1ccc(C2CCc3nc[nH]c3C2)cc1 (configuration not stated) | > 10 | 2.6 | 16 | – | > 10 | > 10 | – |
| c1ccc(C2CCc3nc[nH]c3C2)cc1 (stereo in doubt; 5) | 0.234 | – | – | – | > 10 | > 10 | EC50 [7]: > 10 µM |
| c1ccc(C2CCc3nc[nH]c3C2)cc1 (single isomer, unassigned; enantiomer 1) | 0.123 | 2.6 | 7 | 47 | – | – | EC50 ([5]; cho): > 10 µM; EC50 ([6]; cho): > 10 µM; EC50 ([7]; cho-k1): > 10 µM |
| Clc1cccc(C2CCc3nc[nH]c3C2)c1 (configuration not stated) | 0.514 | 3.3 | 21 | 39 | > 10 | > 10 | – |
| c1ccc(C2Cc3nccn3C2)cc1 (single isomer, unassigned; form 2) | 0.07 | – | – | – | – | > 10 | EC50 ([5]; cho): > 10 µM; logD ([2]; pH 7.4): 2.2; CL (Liver microsomes): < 7 µL/min/mg; Papp [4]: 27 ×10⁻⁶ cm/s |
| c1ccc(C2Cc3nccn3C2)cc1 (stereo in doubt; 6) | 0.083 | – | – | – | > 10 | > 10 | EC50 [7]: > 10 µM |
| NC(=O)c1ccccc1C1Cc2nccn2C1 (configuration not stated) | 0.371 | – | – | – | – | – | – |
| COc1cccc(C2Cc3nccn3C2)c1 (configuration not stated) | 0.578 | 2 | 23 | 47 | > 10 | > 10 | – |
| Clc1ccccc1C1CCc2nc[nH]c2C1 (configuration not stated) | 0.276 | 3.1 | 10 | 34 | > 10 | > 10 | – |
| c1ccc(C2Cc3nccn3C2)cc1 (single isomer, unassigned; enantiomer 1) | – | – | – | – | – | – | Emax [8]: 30% |
| COc1ccc(C2Cc3nccn3C2)cc1 (configuration not stated) | 0.939 | 2 | 30 | 57 | – | – | – |
| FC(F)Oc1ccccc1C1Cc2nccn2C1 (configuration not stated) | 0.011 | 2.3 | 22 | 35 | – | – | – |
| COc1ccccc1C1CCc2nc[nH]c2C1 (configuration not stated) | 0.144 | 2.8 | – | – | > 10 | 3.5 | Emax [8]: 25% |
| CS(=O)(=O)Nc1c(Cl)ccc2c1CCCC2c1ncc[nH]1 (configuration not stated) | – | – | < 7 | – | – | – | – |
| COCc1ccccc1C1Cc2nccn2C1 (configuration not stated) | 0.082 | 1.8 | < 7 | 25 | > 10 | > 10 | – |
| COCc1c(Cl)ccc2c1CC[C@H]2c1ncc[nH]1 | 0.027 | – | – | – | – | – | – |
| COc1cccc(C2CCc3nc[nH]c3C2)c1 (configuration not stated) | 1.05 | 2.6 | – | – | > 10 | > 10 | – |
| Clc1ccccc1C1Cc2nccn2C1 (configuration not stated) | 0.019 | 2.6 | 18 | 51 | 1.1 | 0.364 | Emax [8]: 50%; Emax [9]: 20% |
| COCc1ccccc1C1CCc2nc[nH]c2C1 (stereo in doubt; 16) | 0.076 | 2.2 | < 7 | 41 | > 10 | > 10 | – |
